# Laboratory results from patent US6809208B2, “3-Arylbenzofuranones with electron-withdrawing substituents as stabilizers” (Ciba Specialty Chemicals Corporation, priority 2000, dated 2004).
# Columns and labels:
# [1] = Light-colored SBR-vulcanisate, ozone atmosphere for 48 hours: crack formation; set-up: key: grade 0: Grade 0 denotes no cracks; grade 1 denotes narrow flat cracks; grade 2 denotes moderately broad, moderately deep cracks, clearly visible; grade 3 denotes broad and deep cracks; conditions: 1.0 phr stabilizer, ozone 50 pphm, 40° C., dynamic elongation, without stabilizer grade 1-2
# Description: (§1) 100 parts by weight of Cariflex®S-1502 (styrene/butadiene rubber, Shell) are processed at 60° C., in a mixing mill, with 30.0 parts by weight of Kronos®CL 220 [titanium dioxide (pigment), Kronos Titan GmbH], 30.0 parts by weight of Aktisil®MM [kaolin (filler), Hoffmann Mineral, Neuburg/Donau], 5.0 parts by weight of Naftolen®N 401 [plasticizer, Metallgesellschaft], 10.0 parts by weight of zinc oxide [vulcanization activator], 2.0 parts by weight of stearic acid [vulcanization activator], 2.0 parts by weight of sulfur [vulcanizing agent], 1.0 part by weight of Vulkacit®MOZ [vulcanisation accelerator, Bayer], 0.25 part by weight of Vulkacit®Thiuram [vulcanization accelerator, Bayer] and 1.0 part by weight of the stabilizer to be tested according to Table 24, to form a homogeneous mixture, the vulcanization system (sulfur, Vulkacit®MOZ and Vulkacit®Thiuram) not being added until the end of the mixing process. The mixture is vulcanized in electrical vulcanization presses at 150° C. until T95 is reached in the rheometer curves to form elastomer plates 2 mm thick, 21 cm long and 8.0 cm wide.
# Some of the elastomer plates so obtained are tested for the action of ozone according to the ASTM standard D 3395-86 while subject to dynamic elongation. […] The test plates are then assessed for crack formation according to ASTM D 3395-86. […]
# [2] = Light-colored SBR-vulcanisate, ozone atmosphere for 96 hours: crack formation; set-up: key: grade 0: Grade 0 denotes no cracks; grade 1 denotes narrow flat cracks; grade 2 denotes moderately broad, moderately deep cracks, clearly visible; grade 3 denotes broad and deep cracks; conditions: 2.0 phr stabilizer, ozone 50 pphm, 40° C., dynamic elongation, without stabilizer grade 2
# Description: as §1, with “[plasticiser,” for “[plasticizer,”, “[vulcanization” for “[vulcanisation”, “[…],” for “Bayer] and 1.0 part by weight of the stabilizer to be tested according to Table 24,”
# Some of the elastomer plates so obtained are tested for the action of ozone according to the ASTM standard D 3395-86 while subject to dynamic elongation. In this test the plates are first stored for 30 days in a standard atmosphere [23/50 SN-ISO 291]. Test specimens measuring 20 cm by 1 cm are then punched out and exposed to an ozone atmosphere for 96 hours (ozone content: 50 pphm; temperature: 40° C.; humidity: 50% rel.; elongation: 0 to 25%; elongation rate: 0.5 Hz; number of load cycles: approximately 173 000). The test plates are then assessed for crack formation according to ASTM D 3395-86. Grade 0 denotes no cracks; grade 1 denotes narrow flat cracks; grade 2 denotes moderately broad, moderately deep cracks, clearly visible; grade 3 denotes broad and deep cracks. The lower the grade number, the better the stabilization of the elastomer plates.
# [3] = Light-colored SBR-vulcanisate (Example 22): ΔL-color after 3 weeks in diffuse daylight; conditions: 1.0 phr stabilizer; 3 weeks at room temperature in diffuse daylight; scale 0 to 100, 100 = no discoloration; without stabilizer 94
# Description: as §1
# (§2) The remaining elastomer plates are stored for 3 weeks at room temperature in a standard laboratory atmosphere in diffuse daylight. The ΔL-color of those plates is then determined according to DIN 6167, which corresponds to a scale of from 0 to 100. No discoloration is indicated by a value of 100.
# [4] = Light-colored SBR-vulcanisate (Example 23): ΔL-color after 3 weeks in diffuse daylight; conditions: 2.0 phr stabilizer; 3 weeks at room temperature in diffuse daylight; scale 0 to 100, 100 = no discoloration; without stabilizer 97
# Description: as §1, with “[plasticiser,” for “[plasticizer,”, “[vulcanization” for “[vulcanisation”, “[…],” for “Bayer] and 1.0 part by weight of the stabilizer to be tested according to Table 24,”
# as §2
# [5] = Stabilization of multiple-extruded polypropylene; conditions: 0.05% of compound; heating zones 260, 270, 280° C.; measured at 230° C./2.16 kg; without compound 17.5
# Description: 1.3 kg of polypropylene powder (Profax 6501), which has been prestabilized with 0.025% of Irganox®1076 (n-octadecyl 3-[3,5-di-tert-butyl-4-hydroxyphenyl]propionate) (melt index 3.2 g/10 min, measured at 230° C./2.16 kg) are blended with 0.05% of Irganox®1010 (pentaerythritol tetrakis[3-(3,5-di-tert-butyl-4-hydroxyphenyl)propionate]), 0.05% of calcium stearate, 0.03% of DHT 4A® (Kyowa Chemical Industry Co., Ltd., [Mg4.5Al2(OH)13CO3.3.5H2O]) and 0.05% of compound of Table 4. This blend is then extruded in an extruder having a cylinder diameter of 20 mm and a length of 400 mm at 100 rpm, the 3 heating zones being adjusted to the following temperatures: 260, 270, 280° C. The extrudate is cooled by drawing it through a water bath and is then granulated. This granulate is repeatedly extruded. After 3 extrusions, the melt index is measured (at 230° C./2.16 kg). A substantial increase in the melt index denotes pronounced chain degradation, i.e. poor stabilization.
# [6] = Discoloration of powder coatings based on a carboxy-functional polyester cured in electric and gas ovens; conditions: total 0.60% stabilizers rel. to components 1 to 5
# Description: To prepare the powder coating composition based on a carboxy-functional polyester, components 1 to 6 (formulation without additives) or components 1 to 7 (formulation containing the stabilizers) are employed in the sequence indicated (cf. Table 13).
# The components weighed out in this way are mixed using a planetary stirrer. The mixture is then extruded on a prism extruder at 300 revolutions/minute and at 100° C. and is rolled out. The powder coating composition is coarsely comminuted using a bench cutter and is ground in a Retsch ZM-1 ultracentrifugal mill with a 0.75 mm annular-perforation screen at 15,000 revolutions/minute. Finally, the powder is passed through a 30 μm screen on a centrifugal screening machine.
# The finished powder coating composition is sprayed electrostatically to a coat thickness of 70 μm onto aluminium panels using an ESB-Wagner corona cup gun at 60 kV. Some of the coated panels are cured at 180° C. for 90 minutes in an electric oven. The remaining coated panels are cured at 180° C. for 45 minutes in a gas oven with an NO2 content of 20 ppm. The yellowness index (YI) of the samples is determined in accordance with ASTM D 1925-70. Low YI values denote little discoloration, high YI values denote severe discoloration of the samples.
# [7] = Stabilization of polyethylene during processing (Brabender plastograph); conditions: 0.05 part compound and 0.05 part Irganox 1010 per 100 parts polyethylene; 220° C., 50 rpm; without compound 9.7
# Description: 100 parts of polyethylene powder (Lupolen®5260 Z) are blended with 0.05 part of Irganox®1010 (pentaerythritol tetrakis[3-(3,5-di-tert-butyl-4-hydroxyphenyl)propionate]) and 0.05 part of a compound of Table 5 and the blend is kneaded in a Brabender plastograph at 220° C. and 50 rpm. During this time the kneading resistance is recorded continuously as torque. In the course of the kneading time the polymer begins to crosslink after prolonged constancy, as can be determined by the rapid increase in torque. The time taken until a marked increase in torque is shown in Table 5 as a measure of the stabilizing action. The longer this time is the better the stabilizing action.
# [8] = Stabilization of polycarbonate (yellowness index of extruded granulate); conditions: 0.05% stabilizer; granulate after extrusion at a maximum of 280° C.; without stabilizer 10.3
# Description: 1.0 kg of a polycarbonate powder which has been dried for 8 hours at 120° C. in a vacuum drying oven (Lexan®145, of General Electric) is charged with the stabilizers listed in Table 22 and is then mixed for 2 minutes in a Henschel mixer. This mixture is then extruded in a Schwabenthan extruder at a maximum of 280° C. The polymer string is then granulated. The granulate so obtained is packed into 1 cm thick polystyrene boxes and the yellowness index (YI) is determined according to ASTM D 1925-70. Low YI values denote little discoloration, high YI values high discoloration of the samples. […]
# [9] = Stabilization of multiple-extruded polypropylene at high temperature; set-up: unit not given here; conditions: stabilizer 0.100% by weight, measured at 230° C./2.16 kg
# Description: This blend is then extruded in an extruder having a cylinder diameter of 20 mm and a length of 400 mm at 100 rpm, the 3 heating zones being adjusted to the following temperatures: 280, 320, 340° C. The extrudate is cooled by drawing it through a water bath and is then granulated. This granulate is repeatedly extruded. […] A substantial increase in the melt index denotes pronounced chain degradation, i.e. poor stabilization.
# [10] = Stabilization of polycarbonate (time at 135° C. until YI = 20); conditions: 0.05% stabilizer; without stabilizer 1560
# Description: 1.0 kg of a polycarbonate powder which has been dried for 8 hours at 120° C. in a vacuum drying oven (Lexan®145, of General Electric) is charged with the stabilizers listed in Table 19 and is mixed for 2 minutes in a Henschel mixer. This mixture is then extruded in a Schwabenthan extruder at a maximum of 280° C. The polymer string is then granulated. Using an injection moulding machine, plates having a layer thickness of 2 mm are then moulded from the granulate so obtained at a maximum of 300° C. These plates are then aged in a circulating air oven at 135° C., the time in hours until the yellowness index (YI) reaches a value of 20 according to ASTM D 1925-70 being measured. […]
# [11] = Stabilization of polycarbonate (oven ageing at 135° C., yellowness index and transmission); conditions: 0.05% stabilizer
# Description: This mixture is then extruded in a Schwabenthan extruder at a maximum of 280° C. The polymer string is then granulated. Using an injection moulding machine, plates having a layer thickness of 2 mm are then moulded from the granulate so obtained at a maximum of 300° C. […] Low YI values denote little discoloration, high YI values high discoloration of the patterns. […] The results are compiled in Tables 17 and 18.
smiles,measurement,setting,value
CC(C)(C)c1cc2c(c(C(C)(C)C)c1)OC(=O)C2c1cc(C#N)cc(C#N)c1 (stereo not drawn) [Compound (108)],Crack formation according to ASTM D 3395-86,[1],grade 0-1
same,Crack formation according to ASTM D 3395-86,[2],grade 1
same,ΔL-color according to DIN 6167,[3],96
same,ΔL-color according to DIN 6167,[4],95
"CCCCCCCCOC(=O)c1ccc(C2C(=O)Oc3c2cc(C(C)(C)C)cc3C(C)(C)C)cc1 (stereo not drawn) [Compound (110), 5,7-di-tert-butyl-3-(4-n-octyloxycarbonylphenyl)-3H-benzofuran-2-one]",Melt index after 3 extrusions,[5],4.7
same,Yellowness index after 90 minutes (ASTM D 1925-70),"[6]; Curing for 45 minutes in a gas oven at 180° C., NO2 content 20 ppm, without stabilizer 4.2",3.4
same,Yellowness index after 90 minutes (ASTM D 1925-70),"[6]; Curing for 90 minutes in an electric oven at 180° C., without stabilizer 3.1",2.7
same,Time until increase in torque,[7],27.5 min
Cc1cc(OP(Oc2cc(C)c(C(C)(C)C)cc2C(C)(C)C)c2ccc(-c3ccc(P(Oc4cc(C)c(C(C)(C)C)cc4C(C)(C)C)Oc4cc(C)c(C(C)(C)C)cc4C(C)(C)C)cc3)cc2)c(C(C)(C)C)cc1C(C)(C)C [GSY ®P101],Yellowness index,[8],5.1
"CC(C)(C)c1ccc(OP(Oc2ccc(C(C)(C)C)cc2C(C)(C)C)Oc2ccc(C(C)(C)C)cc2C(C)(C)C)c(C(C)(C)C)c1 [Irgafos ®168, tris(2,4-di-tert-butylphenyl)phosphite, reference compound]",Melt index after 5 extrusions,[9]; 280° C.,9.7
same,Melt index after 5 extrusions,[9]; 320° C.,43.8
same,Melt index after 5 extrusions,[9]; 340° C.,80.1
same,Time in hours at 135° C. to YI = 20,[10],2000 h
same,Yellowness index prior to oven-ageing,"[11]; 2 mm plates, ASTM D 1925-70",3.4
same,Transmission in % prior to oven-aging,[11]; at 450 nm,84.7%
same,Transmission in % after 2000 hours at 135° C.,"[11]; at 450 nm, without stabilizer 76.4",77.8%
same,Yellowness index after 2000 hours at 135° C.,"[11]; circulating air oven, without stabilizer 25.0",23.5
"CC(C)Nc1ccc(Nc2ccccc2)cc1 [Vulkanox ® 4010, 4-isopropylamino-diphenylamine, reference compound]",Crack formation according to ASTM D 3395-86,[1],grade 0
same,Crack formation according to ASTM D 3395-86,[2],grade 0
same,ΔL-color according to DIN 6167,[3],70
same,ΔL-color according to DIN 6167,[4],56
